Laboratory results published in the supplement of paper PMC5662764.
± gives the standard deviation of the averaged measurements.

Assays:
Assay in all cases: normalised growth rate inhibition (GR value) relative to DMSO control (GR (1 = untreated growth, 0 = cytostasis, <0 = cytotoxic)); higher = less growth inhibition
Details in all cases: 72 h
MCF7 = test system: MCF7
Method: (§1)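 Breast cancer cell lines (BT-20, Hs 578T, MCF 10A, MCF7, MDA-MB-231, SK-BR-3) were plated in 384-well plates and treated 24 h later with drugs at six concentrations (0.04-10 µM). Viable cells were counted by Hoechst/dead-cell-stain imaging at 0 and 72 h. Counts were normalised to DMSO controls on the same plate to give the relative cell count and the growth-rate inhibition (GR) value; technical plate triplicates were averaged for each biological replicate.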

MDAMB231 = test system: MDAMB231
Method: as §1

HS578T = test system: HS578T
Method: as §1

MCF10A = test system: MCF10A
Method: as §1

SKBR3 = test system: SKBR3
Method: as §1

BT20 = test system: BT20
Method: as §1

Row | Compound | normalised growth rate inhibition (MCF7; 0.04 µM) | normalised growth rate inhibition (MCF7; 0.12 µM) | normalised growth rate inhibition (MCF7; 0.37 µM) | normalised growth rate inhibition (MCF7; 1.11 µM) | normalised growth rate inhibition (MCF7; 3.33 µM) | normalised growth rate inhibition (MCF7; 10 µM) | normalised growth rate inhibition (MDAMB231; 0.04 µM) | normalised growth rate inhibition (MDAMB231; 0.12 µM) | normalised growth rate inhibition (MDAMB231; 0.37 µM) | normalised growth rate inhibition (MDAMB231; 1.11 µM) | normalised growth rate inhibition (MDAMB231; 3.33 µM) | normalised growth rate inhibition (MDAMB231; 10 µM) | normalised growth rate inhibition (HS578T; 0.04 µM) | normalised growth rate inhibition (HS578T; 0.12 µM) | normalised growth rate inhibition (HS578T; 0.37 µM) | normalised growth rate inhibition (HS578T; 1.11 µM) | normalised growth rate inhibition (HS578T; 3.33 µM) | normalised growth rate inhibition (HS578T; 10 µM) | normalised growth rate inhibition (MCF10A; 0.04 µM) | normalised growth rate inhibition (MCF10A; 0.12 µM) | normalised growth rate inhibition (MCF10A; 0.37 µM) | normalised growth rate inhibition (MCF10A; 1.11 µM) | normalised growth rate inhibition (MCF10A; 3.33 µM) | normalised growth rate inhibition (MCF10A; 10 µM) | normalised growth rate inhibition (SKBR3; 0.04 µM) | normalised growth rate inhibition (SKBR3; 0.12 µM) | normalised growth rate inhibition (SKBR3; 0.37 µM) | normalised growth rate inhibition (SKBR3; 1.11 µM) | normalised growth rate inhibition (SKBR3; 3.33 µM) | normalised growth rate inhibition (SKBR3; 10 µM) | normalised growth rate inhibition (BT20; 0.04 µM) | normalised growth rate inhibition (BT20; 0.12 µM) | normalised growth rate inhibition (BT20; 0.37 µM) | normalised growth rate inhibition (BT20; 1.11 µM) | normalised growth rate inhibition (BT20; 3.33 µM) | normalised growth rate inhibition (BT20; 10 µM)
1 | CCCS(=O)(=O)Nc1ccc(F)c(C(=O)c2c[nH]c3ncc(Cl)cc23)c1F [PLX-4720] | 1.04 ± 0.078 | 0.944 ± 0.028 | 1.02 ± 0.049 | 0.991 ± 0.02 | 0.851 ± 0.097 | 0.5 ± 0.16 | 0.989 ± 0.06 | 1.01 ± 0.054 | 1 ± 0.032 | 0.929 ± 0.041 | 0.822 ± 0.073 | 0.63 ± 0.21 | 1.03 ± 0.033 | 1.09 ± 0.044 | 1.12 ± 0.079 | 1.12 ± 0.11 | 1.04 ± 0.086 | 0.781 ± 0.092 | 0.998 ± 0.019 | 0.99 ± 0.039 | 0.982 ± 0.054 | 1 ± 0.068 | 1 ± 0.066 | 0.896 ± 0.056 | 0.994 ± 0.015 | 0.999 ± 0.026 | 1.04 ± 0.15 | 1.06 ± 0.06 | 0.61 ± 0.1 | 0.254 ± 0.26 | 1.01 ± 0.032 | 0.988 ± 0.027 | 0.959 ± 0.051 | 0.882 ± 0.16 | 0.685 ± 0.1 | 0.409 ± 0.05
2 | C=CC(=O)Nc1cc(-n2c(=O)ccc3cnc4ccc(-c5cn[nH]c5)cc4c32)ccc1C [QL-X-138] | 0.496 ± 0.22 | 0.41 ± 0.2 | 0.31 ± 0.098 | 0.205 ± 0.094 | 0.145 ± 0.061 | -0.0977 ± 0.021 | 0.824 ± 0.13 | 0.834 ± 0.062 | 0.768 ± 0.059 | 0.672 ± 0.12 | 0.48 ± 0.13 | -0.135 ± 0.11 | 0.841 ± 0.034 | 0.76 ± 0.066 | 0.639 ± 0.024 | 0.501 ± 0.018 | 0.379 ± 0.061 | -0.0527 ± 0.082 | 1.01 ± 0.063 | 0.981 ± 0.074 | 0.887 ± 0.15 | 0.791 ± 0.19 | 0.505 ± 0.29 | -0.112 ± 0.031 | 0.463 ± 0.16 | 0.413 ± 0.11 | 0.233 ± 0.13 | 0.163 ± 0.09 | 0.0588 ± 0.1 | -0.231 ± 0.21 | 0.727 ± 0.052 | 0.726 ± 0.046 | 0.631 ± 0.11 | 0.535 ± 0.17 | 0.381 ± 0.18 | -0.222 ± 0.053
3 | C=CC(=O)N1CCc2ccc(-n3c(=O)ccc4cnc5ccc(-c6cnn(C)c6)cc5c43)cc21 [QL-XII-47] | 0.57 ± 0.16 | 0.35 ± 0.25 | 0.0387 ± 0.084 | -0.0941 ± 0.045 | -0.109 ± 0.017 | -0.188 ± 0.12 | 0.659 ± 0.12 | 0.541 ± 0.14 | 0.337 ± 0.15 | 0.109 ± 0.14 | -0.0169 ± 0.082 | -0.128 ± 0.12 | 0.895 ± 0.091 | 0.854 ± 0.11 | 0.713 ± 0.15 | 0.438 ± 0.24 | 0.153 ± 0.14 | -0.127 ± 0.12 | 0.969 ± 0.021 | 0.953 ± 0.024 | 0.867 ± 0.11 | 0.683 ± 0.26 | 0.428 ± 0.32 | -0.127 ± 0.14 | 0.516 ± 0.042 | 0.35 ± 0.12 | 0.0964 ± 0.17 | -0.108 ± 0.14 | -0.26 ± 0.18 | -0.3 ± 0.16 | 0.669 ± 0.29 | 0.618 ± 0.31 | 0.351 ± 0.28 | 0.0671 ± 0.23 | -0.135 ± 0.077 | -0.259 ± 0.091
4 | Cc1cc(C(C)Nc2ccccc2)c2nc(N3CCOCC3)cc(=O)n2c1 (centres undefined) [TGX-221] | 0.82 ± 0.073 | 0.848 ± 0.018 | 0.96 ± 0.013 | 0.98 ± 0.034 | 0.79 ± 0.15 | 0.822 ± 0.076 | 0.779 ± 0.087 | 0.816 ± 0.083 | 0.826 ± 0.086 | 0.868 ± 0.042 | 0.691 ± 0.19 | 0.868 ± 0.03 | 0.9256 ± 0.0041 | 0.902 ± 0.044 | 0.91 ± 0.02 | 0.891 ± 0.029 | 0.597 ± 0.28 | 0.698 ± 0.093 | 0.968 ± 0.03 | 0.972 ± 0.039 | 0.971 ± 0.027 | 0.964 ± 0.033 | 0.591 ± 0.38 | 0.957 ± 0.08 | 0.681 ± 0.072 | 0.789 ± 0.049 | 0.907 ± 0.034 | 0.963 ± 0.036 | 0.961 ± 0.023 | 0.888 ± 0.03 | 0.914 ± 0.05 | 0.954 ± 0.032 | 1.01 ± 0.021 | 1.02 ± 0.052 | 1.06 ± 0.054 | 1.05 ± 0.026
